Results from US20090311217A1, “3-SUBSTITUTED-1H-INDOLE COMPOUNDS, THEIR USE AS MTOR KINASE AND PI3 KINASE INHIBITORS, AND THEIR SYNTHESES” (priority 2008, published 2009).
pIC50: −log10 of the molar value. Where two headings read alike, the source gives them in different places.

Legend:
PI3K-alpha = PI3K-alpha (Homo sapiens, UniProt P42336); experiment: PI3K-alpha fluorescence polarization assay; assay type: biochemical
PI3K-gamma = PI3K-gamma (Homo sapiens, UniProt P48736); experiment: PI3K-gamma fluorescence polarization assay; assay type: biochemical; conditions: PI3Kγ Avg. IC50
Chain of PI3K-gamma (P48736 whole entry, species assumed): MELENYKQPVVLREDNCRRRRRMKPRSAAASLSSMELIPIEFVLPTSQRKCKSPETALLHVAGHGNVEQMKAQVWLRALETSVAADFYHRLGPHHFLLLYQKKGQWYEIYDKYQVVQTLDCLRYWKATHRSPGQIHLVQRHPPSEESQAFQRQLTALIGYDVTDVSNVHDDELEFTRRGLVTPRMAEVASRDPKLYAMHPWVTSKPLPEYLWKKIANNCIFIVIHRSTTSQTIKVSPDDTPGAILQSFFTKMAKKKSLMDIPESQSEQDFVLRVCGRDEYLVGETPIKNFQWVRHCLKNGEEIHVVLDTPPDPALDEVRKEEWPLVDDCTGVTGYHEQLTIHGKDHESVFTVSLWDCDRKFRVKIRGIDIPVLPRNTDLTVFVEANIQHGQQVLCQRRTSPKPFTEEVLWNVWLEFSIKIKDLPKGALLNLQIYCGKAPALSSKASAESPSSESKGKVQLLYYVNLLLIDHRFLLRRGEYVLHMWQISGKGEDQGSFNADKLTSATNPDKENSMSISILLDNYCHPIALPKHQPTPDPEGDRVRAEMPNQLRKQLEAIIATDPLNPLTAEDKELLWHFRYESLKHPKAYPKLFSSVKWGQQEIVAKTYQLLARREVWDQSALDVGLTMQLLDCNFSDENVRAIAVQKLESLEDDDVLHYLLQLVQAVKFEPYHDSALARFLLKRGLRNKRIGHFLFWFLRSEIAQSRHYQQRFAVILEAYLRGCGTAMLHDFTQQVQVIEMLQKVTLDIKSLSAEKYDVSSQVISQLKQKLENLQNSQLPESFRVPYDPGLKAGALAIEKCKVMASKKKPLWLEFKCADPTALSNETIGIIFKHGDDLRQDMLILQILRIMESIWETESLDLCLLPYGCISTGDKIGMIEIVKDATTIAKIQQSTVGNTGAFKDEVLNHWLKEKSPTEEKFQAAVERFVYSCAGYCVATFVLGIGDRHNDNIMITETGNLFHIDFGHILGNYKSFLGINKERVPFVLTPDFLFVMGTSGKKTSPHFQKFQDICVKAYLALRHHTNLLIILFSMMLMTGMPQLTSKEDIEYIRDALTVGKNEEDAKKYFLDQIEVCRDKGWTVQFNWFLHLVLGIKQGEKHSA
Protocol: PI3K-Alpha, PI3K-Beta, PI3K-Gamma, and PI3K-delta Fluorescence Polarization Assay Protocols
PI3-Kinase reactions were performed in 5 mM HEPES, pH 7, 2.5 mM MgCl2, and 25 μM ATP, with diC8-PI(4,5)P2 (Echelon, Salt Lake City Utah) as substrate. Nunc 384-well black polypropylene fluorescent plates were used for PI3K assays. Reactions were quenched by the addition of EDTA to a final concentration of 10 mM. Final reaction volumes were 10 μl. For evaluation of PI3K inhibitors, 5 ng of enzyme (PI3K-alpha, beta, gamma, or delta) and 2.5 μM of substrate was used per […] reaction volume, and inhibitor concentrations ranged from 100 μM to 20 μM; the final level of DMSO in reactions never exceeded 2%. Reactions were allowed to proceed for one hour at 25° C. After 1 hour, GST-tagged GRP1 (general receptor for phosphoinositides) PH domain fusion protein was added to a final concentration of 100 nM, and BODIPY-TMRI(1,3,4,5)P4 (Echelon) was also added to a final concentration of 5 nM. Final sample volumes were 25 μl with a final DMSO concentration of 0.8%. Assay Plates were read on Perkin-Elmer Envision plate readers with appropriate filters for Tamra [BODIPY-TMRI(1,3,4,5)P4]. Data obtained were used to calculate enzymatic activity and enzyme inhibition by inhibitor compounds.

Chain of PI3K-alpha (P42336 whole entry, species assumed): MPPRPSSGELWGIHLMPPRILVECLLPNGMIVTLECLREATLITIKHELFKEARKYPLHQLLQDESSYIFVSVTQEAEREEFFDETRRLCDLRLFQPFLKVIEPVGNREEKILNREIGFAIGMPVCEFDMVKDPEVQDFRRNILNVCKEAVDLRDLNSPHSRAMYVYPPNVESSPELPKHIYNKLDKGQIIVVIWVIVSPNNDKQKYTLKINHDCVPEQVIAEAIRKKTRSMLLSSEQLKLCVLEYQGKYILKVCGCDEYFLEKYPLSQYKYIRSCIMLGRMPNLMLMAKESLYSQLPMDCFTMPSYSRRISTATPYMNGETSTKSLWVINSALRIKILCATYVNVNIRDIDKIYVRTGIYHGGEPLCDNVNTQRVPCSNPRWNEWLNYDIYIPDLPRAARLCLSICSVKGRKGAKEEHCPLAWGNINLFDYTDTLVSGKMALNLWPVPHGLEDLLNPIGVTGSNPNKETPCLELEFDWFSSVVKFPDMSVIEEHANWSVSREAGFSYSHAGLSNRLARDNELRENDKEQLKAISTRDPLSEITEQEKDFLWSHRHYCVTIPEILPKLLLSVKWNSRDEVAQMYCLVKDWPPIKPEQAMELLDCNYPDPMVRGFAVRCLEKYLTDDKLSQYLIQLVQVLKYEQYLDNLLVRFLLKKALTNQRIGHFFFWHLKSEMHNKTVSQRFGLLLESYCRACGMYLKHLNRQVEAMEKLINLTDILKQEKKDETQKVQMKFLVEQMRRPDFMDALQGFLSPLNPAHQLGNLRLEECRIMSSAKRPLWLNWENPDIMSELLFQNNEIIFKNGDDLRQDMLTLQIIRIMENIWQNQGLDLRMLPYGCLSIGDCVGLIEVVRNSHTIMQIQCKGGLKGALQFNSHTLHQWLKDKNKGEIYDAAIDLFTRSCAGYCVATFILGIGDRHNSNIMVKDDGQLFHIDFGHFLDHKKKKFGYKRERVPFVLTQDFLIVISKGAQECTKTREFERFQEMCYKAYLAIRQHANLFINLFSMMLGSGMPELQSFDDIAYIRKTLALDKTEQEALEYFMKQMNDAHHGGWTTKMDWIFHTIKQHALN
Chain of PI3K-alpha (P27986 whole entry partner, species assumed): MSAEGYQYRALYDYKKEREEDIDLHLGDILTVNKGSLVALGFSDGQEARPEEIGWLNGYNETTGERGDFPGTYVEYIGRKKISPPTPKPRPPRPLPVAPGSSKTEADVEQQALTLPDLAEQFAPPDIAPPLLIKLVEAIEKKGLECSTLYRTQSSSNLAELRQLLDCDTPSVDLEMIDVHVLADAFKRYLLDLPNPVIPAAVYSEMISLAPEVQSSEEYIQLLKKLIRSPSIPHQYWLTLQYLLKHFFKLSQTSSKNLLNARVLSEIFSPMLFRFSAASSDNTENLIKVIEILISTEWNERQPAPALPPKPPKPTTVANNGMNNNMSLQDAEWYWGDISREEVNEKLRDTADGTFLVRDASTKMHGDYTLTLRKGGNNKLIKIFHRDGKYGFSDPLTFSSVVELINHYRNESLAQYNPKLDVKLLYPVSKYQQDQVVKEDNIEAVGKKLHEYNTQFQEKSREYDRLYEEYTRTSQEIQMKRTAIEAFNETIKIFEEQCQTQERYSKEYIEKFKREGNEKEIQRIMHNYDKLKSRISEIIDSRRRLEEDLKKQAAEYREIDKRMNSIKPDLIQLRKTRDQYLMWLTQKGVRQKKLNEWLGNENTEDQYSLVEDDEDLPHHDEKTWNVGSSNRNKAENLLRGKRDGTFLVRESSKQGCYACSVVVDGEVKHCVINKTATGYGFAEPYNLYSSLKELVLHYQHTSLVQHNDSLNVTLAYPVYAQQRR

CNC(=O)Nc1ccc2c(c1)C(=O)/C(=C/c1c(C)n(CCCN3CCN(C)CC3)c3ccc(OC)cc13)O2 [Compound 586, 1-[(2Z)-2-({5-methoxy-2-methyl-1-[3-(4-methylpiperazin-1-yl)propyl]-1H-indol-3-yl}methylene)-3-oxo-2,3-dihydro-1-benzofuran-5-yl]-3-methylurea]
pIC50 (PI3K-alpha; read-out: PI3Kα Avg. IC50): 8.46
pIC50 (PI3K-gamma): 5.99

CNC(=O)Nc1ccc2c(c1)C(=O)/C(=C/c1c(C(=O)N3CCN(C)CC3)[nH]c3ccc(OC)cc13)O2 [Compound 601, 1-[(2Z)-2-({5-methoxy-2-[(4-methylpiperazin-1-yl)carbonyl]-1H-indol-3-yl}methylidene)-3-oxo-2,3-dihydro-1-benzofuran-5-yl]-3-methylurea]
pIC50 (PI3K-alpha; read-out: PI3Kα Avg. IC50): 8.10
pIC50 (PI3K-gamma): 7.11

CNC(=O)Nc1ccc2c(c1)C(=O)/C(=C/c1c[nH]c3c(CN4CCOCC4)cc(OC)cc13)O2 [Compound 570, 1-[(2Z)-2-{[5-methoxy-7-(morpholin-4-ylmethyl)-1H-indol-3-yl]methylene}-3-oxo-2,3-dihydro-1-benzofuran-5-yl]-3-methylurea]
pIC50 (PI3K-alpha; read-out: PI3Kα Avg. IC50): 5.08
pIC50 (PI3K-gamma): 5.19

COc1ccc2c(c1)c(/C=C1\Oc3ccc(NC(=O)NCCN)cc3C1=O)c(C1CCCC1)n2CCN1CCN(C)CC1 [Compound 577, 1-(2-aminoethyl)-3-[(2Z)-2-({2-cyclopentyl-5-methoxy-1-[2-(4-methylpiperazin-1-yl)ethyl]-1H-indol-3-yl}methylene)-3-oxo-2,3-dihydro-1-benzofuran-5-yl]urea]
pIC50 (PI3K-alpha; read-out: PI3Kα Avg. IC50): 8.96
pIC50 (PI3K-gamma): 6.84

COc1ccc2c(c1)c(/C=C1\Oc3ccc(NC(=O)NCCCCN)cc3C1=O)cn2CCN1CCN(C)CC1 [Compound 565, 1-(4-aminobutyl)-3-[(2Z)-2-({5-methoxy-1-[2-(4-methylpiperazin-1-yl)ethyl]-1Hindol-3-yl}methylene)-3-oxo-2,3-dihydro-1-benzofuran-5-yl]urea]
pIC50 (PI3K-alpha; read-out: PI3Kα Avg. IC50): 6.94
pIC50 (PI3K-gamma): < 5.00

O=C1/C(=C/c2cn(Cc3ccccc3)c3ccccc23)Oc2ccccc21 [Example 25, (2Z)-2-[(1-benzyl-1H-indol-3-yl)methylene]-1-benzofuran-3(2H)-one]
pIC50 (PI3K-alpha; read-out: PI3Kα Avg. IC50): < 5.00

O=C1/C(=C/c2c(-c3ccc(Cl)cc3)[nH]c3ccccc23)Oc2ccccc21 [Example 17, (2Z)-2-{[2-(4-chlorophenyl)-1H-indol-3-yl]methylene}-1-benzofuran-3(2H)-one]
pIC50 (PI3K-alpha; read-out: PI3Kα Avg. IC50): 5.60

COc1cccc2c1O/C(=C\c1c(C)[nH]c3ccccc13)C2=O [Example 39, (2Z)-7-methoxy-2-[(2-methyl-1H-indol-3-yl)methylene]-1-benzofuran-3(2H)-one]
pIC50 (PI3K-alpha; read-out: PI3Kα Avg. IC50): < 5.00

Cc1[nH]c2ccc([N+](=O)[O-])cc2c1/C=C1\Oc2ccccc2C1=O [Example 20, (2Z)-2-[(2-methyl-5-nitro-1H-indol-3-yl)methylene]-1-benzofuran-3(2H)-one]
pIC50 (PI3K-alpha; read-out: PI3Kα Avg. IC50): < 5.00

Cc1ccc2c(c1)C(=O)C(=Cc1cn(C)c3ccccc13)S2 [Example 299, 5-methyl-2-[(1-methyl-1H-indol-3-yl)methylene]-1-benzothiophen-3(2H)-one]
pIC50 (PI3K-alpha; read-out: PI3Kα Avg. IC50): < 5.00

COc1ccc2c(c1)c(C=C1Oc3c(ccc(O)c3O)C1=O)c(C)n2CCCCN1CCN(CCO)CC1 [Example 146, 6,7-dihydroxy-2-[(1-{4-[4-(2-hydroxyethyl)piperazin-1-yl]butyl}-5-methoxy-2-methyl-1H-indol-3-yl)methylene]-1-benzofuran-3(2H)-one]
pIC50 (PI3K-alpha; read-out: PI3Kα Avg. IC50): 6.07

COc1ccc2c(c1)c(C=C1Oc3c(ccc(O)c3O)C1=O)c(C)n2CCCCN1CCOCC1 [Example 145, 6,7-dihydroxy-2-{[5-methoxy-2-methyl-1-(4-morpholin-4-ylbutyl)-1H-indol-3-yl]methylene}-1-benzofuran-3(2H)-one]
pIC50 (PI3K-alpha; read-out: PI3Kα Avg. IC50): 6.08

Cc1[nH]c2ccccc2c1/C=C1\Sc2ccccc2C1=O [Example 272, (2Z)-2-[(2-methyl-1H-indol-3-yl)methylene]-1-benzothiophen-3(2H)-one]
pIC50 (PI3K-alpha; read-out: PI3Kα Avg. IC50): 5.88

O=C1/C(=C/c2c[nH]c3ccc(Br)cc23)Oc2ccccc21 [Example 24, (2Z)-2-[(5-bromo-1H-indol-3-yl)methylene]-1-benzofuran-3(2H)-one]
pIC50 (PI3K-alpha; read-out: PI3Kα Avg. IC50): < 5.00

Cc1ccc2c(c1)C(=O)C(=Cc1c(-c3ccc(F)cc3)[nH]c3ccccc13)S2 [Example 297, 2-{[2-(4-fluorophenyl)-1H-indol-3-yl]methylene}-5-methyl-1-benzothiophen-3(2H)-one]
pIC50 (PI3K-alpha; read-out: PI3Kα Avg. IC50): < 5.00

O=C1/C(=C/c2c(-c3ccc4ccccc4c3)[nH]c3ccccc23)Oc2cc(O)ccc21 [Example 27, (2Z)-6-hydroxy-2-{[2-(2-naphthyl)-1H-indol-3-yl]methylene}-1-benzofuran-3(2H)-one]
pIC50 (PI3K-alpha; read-out: PI3Kα Avg. IC50): 5.26

Cc1ccc2c(c1)C(=O)/C(=C/c1c[nH]c3c(C)cccc13)S2 [Example 293, (2Z)-5-methyl-2-[(7-methyl-1H-indol-3-yl)methylene]-1-benzothiophen-3(2H)-one]
pIC50 (PI3K-alpha; read-out: PI3Kα Avg. IC50): < 5.00

Cc1[nH]c2ccccc2c1/C=C1\Oc2ccccc2C1=O [Example 21, (2Z)-2-[(2-methyl-1H-indol-3-yl)methylene]-1-benzofuran-3(2H)-one]
pIC50 (PI3K-alpha; read-out: PI3Kα Avg. IC50): < 5.00

O=C1/C(=C/c2c(-c3ccc4ccccc4c3)[nH]c3ccccc23)Sc2ccccc21 [Example 276, (2Z)-2-{[2-(2-naphthyl)-1H-indol-3-yl]methylene}-1-benzothiophen-3(2H)-one]
pIC50 (PI3K-alpha; read-out: PI3Kα Avg. IC50): < 5.00

COc1cccc2c1O/C(=C\c1c[nH]c3ccc(OCc4ccccc4)cc13)C2=O [Example 43, (2Z)-2-{[5-(benzyloxy)-1H-indol-3-yl]methylene}-7-methoxy-1-benzofuran-3(2H)-one]
pIC50 (PI3K-alpha; read-out: PI3Kα Avg. IC50): < 5.00

Cc1ccc2c(/C=C3\Sc4ccccc4C3=O)c[nH]c2c1 [Example 279, (2Z)-2-[(6-methyl-1H-indol-3-yl)methylene]-1-benzothiophen-3(2H)-one]
pIC50 (PI3K-alpha; read-out: PI3Kα Avg. IC50): < 5.00

Cn1cc(/C=C2\Sc3ccccc3C2=O)c2ccccc21 [Example 278, (2Z)-2-[(1-methyl-1H-indol-3-yl)methylene]-1-benzothiophen-3(2H)-one]
pIC50 (PI3K-alpha; read-out: PI3Kα Avg. IC50): 5.51

Cc1cccc2c(/C=C3\Sc4ccccc4C3=O)c[nH]c12 [Example 280, (2Z)-2-[(7-methyl-1H-indol-3-yl)methylene]-1-benzothiophen-3(2H)-one]
pIC50 (PI3K-alpha; read-out: PI3Kα Avg. IC50): 5.34

Cc1ccc2c(c1)C(=O)/C(=C/c1c(-c3ccccc3)[nH]c3ccccc13)S2 [Example 290, (2Z)-5-methyl-2-[(2-phenyl-1H-indol-3-yl)methylene]-1-benzothiophen-3(2H)-one]
pIC50 (PI3K-alpha; read-out: PI3Kα Avg. IC50): 5.04

COc1ccc2c(c1)c(C=C1Oc3c(ccc(O)c3O)C1=O)c(C)n2CCCCN1CCN(C)CC1 [Example 144, 6,7-dihydroxy-2-({5-methoxy-2-methyl-1-[4-(4-methylpiperazin-1-yl)butyl]-1H-indol-3-yl}methylene)-1-benzofuran-3(2H)-one]
pIC50 (PI3K-alpha; read-out: PI3Kα Avg. IC50): 5.80

COc1cccc2c1OC(=Cc1c[nH]c3ccccc13)C2=O [Example 9, 2-(1H-indol-3-ylmethylene)-7-methoxy-1-benzofuran-3(2H)-one]
pIC50 (PI3K-alpha; read-out: PI3Kα Avg. IC50): < 5.00

COc1ccc2c(c1)c(C=C1Oc3c(ccc(O)c3O)C1=O)cn2C [Example 85, 6,7-dihydroxy-2-[(5-methoxy-1-methyl-1H-indol-3-yl)methylene]-1-benzofuran-3(2H)-one]
pIC50 (PI3K-alpha; read-out: PI3Kα Avg. IC50): 5.94

CNC(=O)Oc1ccc2c(c1)C(=O)/C(=C/c1cn(CCN3CCN(C)CC3)c3ccc(OC)cc13)O2 [Compound 546, (2Z)-2-({5-methoxy-1-[2-(4-methylpiperazin-1-yl)ethyl]-1H-indol-3-yl}methylene)-3-oxo-2,3-dihydro-1-benzofuran-5-yl methylcarbamate]
pIC50 (PI3K-alpha; PI3Kα Avg. IC50): 6.20

Cn1cc(/C=C2\Oc3cc(O)cc(O)c3C2=O)c2ccccc21 [Example 16, (2Z)-4,6-dihydroxy-2-[(1-methyl-1H-indol-3-yl)methylene]-1-benzofuran-3(2H)-one]
pIC50 (PI3K-gamma): 5.16

O=C1/C(=C/c2c[nH]c3ccccc23)Sc2ccc(Cl)cc21 [Example 281, (2Z)-5-chloro-2-(1H-indol-3-ylmethylene)-1-benzothiophen-3(2H)-one]
pIC50 (PI3K-alpha; read-out: PI3Kα Avg. IC50): < 5.00

COc1cccc2c1O/C(=C\c1c(-c3ccc4ccccc4c3)[nH]c3ccccc13)C2=O [Example 36, (2Z)-7-methoxy-2-{[2-(2-naphthyl)-1H-indol-3-yl]methylene}-1-benzofuran-3(2H)-one]
pIC50 (PI3K-alpha; read-out: PI3Kα Avg. IC50): < 5.00

COc1ccc2c(c1)c(/C=C1\Oc3ccc(Br)cc3C1=O)cn2CCCN(C)C [Compound 516, (2Z)-5-bromo-2-({1-[3-(dimethylamino)propyl]-5-methoxy-1H-indol-3-yl}methylene)-1-benzofuran-3(2H)-one]
pIC50 (PI3K-alpha; read-out: PI3Kα Avg. IC50): 5.01

O=C1/C(=C/c2c(-c3ccccc3)[nH]c3ccccc23)Sc2ccc(Cl)cc21 [Example 283, (2Z)-5-chloro-2-[(2-phenyl-1H-indol-3-yl)methylene]-1-benzothiophen-3(2H)-one]
pIC50 (PI3K-alpha; read-out: PI3Kα Avg. IC50): < 5.00

O=C1/C(=C/c2c(-c3ccc(Cl)cc3)[nH]c3ccccc23)Sc2ccc(Cl)cc21 [Example 284, (2Z)-5-chloro-2-{[2-(4-chlorophenyl)-1H-indol-3-yl]methylene}-1-benzothiophen-3(2H)-one]
pIC50 (PI3K-alpha; read-out: PI3Kα Avg. IC50): < 5.00
